Experiments:
[1] = biological target: T1, menin/MLL (terbium chelate-labeled menin, FITC-MBM1 peptide) (Homo sapiens, UniProt O00255, T541A); test: Menin/MLL homogenous time-resolved fluorescence (HTRF) assay; assay type: binding; conditions: 30 min incubation
T1 construct: Menin (a.a 1-610-6xhis tag)
T1 sequence (O00255 with tags, fused parts or gaps T541A): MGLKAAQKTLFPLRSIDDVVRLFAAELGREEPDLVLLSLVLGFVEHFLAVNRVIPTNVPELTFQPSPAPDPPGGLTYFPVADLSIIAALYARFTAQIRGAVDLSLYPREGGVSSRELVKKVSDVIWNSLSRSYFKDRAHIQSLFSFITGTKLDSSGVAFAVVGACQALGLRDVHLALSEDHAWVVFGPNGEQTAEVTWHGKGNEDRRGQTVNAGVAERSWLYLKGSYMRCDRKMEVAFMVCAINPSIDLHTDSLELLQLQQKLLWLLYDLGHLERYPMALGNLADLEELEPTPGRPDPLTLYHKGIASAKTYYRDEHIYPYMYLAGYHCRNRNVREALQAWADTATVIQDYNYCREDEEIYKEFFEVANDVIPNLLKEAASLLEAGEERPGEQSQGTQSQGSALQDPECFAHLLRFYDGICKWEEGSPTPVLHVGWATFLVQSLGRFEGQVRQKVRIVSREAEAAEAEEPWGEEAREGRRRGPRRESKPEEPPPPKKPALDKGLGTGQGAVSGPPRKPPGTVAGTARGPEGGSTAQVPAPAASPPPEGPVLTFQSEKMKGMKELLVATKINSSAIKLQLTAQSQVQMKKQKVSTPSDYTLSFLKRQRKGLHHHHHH
Method in brief: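 Percent inhibition, calculated from the 520/490 nm HTRF ratio against high and low controls, was fitted for IC50 with a 0.1 nM detection limit. Reactions held 200 pM Tb-menin and 75 nM FITC-MBM1 in pH 7.5 Tris buffer with 0.5% DMSO.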

MOLM14 cells = test: Proliferation assay, spheroid-like growth, MOLM14 (MLL-AF9 rearranged); assay type: cell-based, human; conditions: Homo sapiens, MOLM-14, 192 h, 8 days, confluence as measure of spheroid size, read-out: spheroid assay_OneTime MOLM14 IC50
Method in brief: (§1)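 Seed cells at linear-growth densities in low-attachment wells; add test compound at several concentrations, normalized to 0.3% DMSO; incubate 8 days at 37 °C; image spheroids and measure confluence; calculate absolute IC50 against DMSO and reference-compound controls.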

KO-52 cells = test: Proliferation assay, spheroid-like growth, KO-52 (MLL wildtype control cell line); assay type: cell-based, human; conditions: Homo sapiens, 192 h, KO-52 control cells, 8 days, confluence as measure of spheroid size; read-out: spheroid assay_OneTime KO-52 IC50
Method in brief: as §1

Row | IC50 [1] [nM] | IC50 (MOLM14 cells) [nM] | SMILES | IC50 (KO-52 cells) [nM]
1 | 0.2 | 10 | CC(C)[C@H]([C@H]1C[C@@H](NC(=O)CC2COC2)C1)N1CC2(CCN(c3ncnnc3Oc3ccc(F)cc3-c3cncnc3C3CC3)C2)C1 (single isomer, unassigned) [Compound 296] | > 15000
2 | 0.1 | 10 | CC(C)[C@H]([C@H]1C[C@@H](NC(=O)CCN(C)C)C1)N1CC2(CCN(c3ncnnc3Oc3ccc(F)cc3-c3cncnc3C3CC3)C2)C1 (single isomer, unassigned) [Compound 297] | 10600
3 | 0.1 | 6 | CC(C)[C@H]([C@H]1C[C@@H](NC(=O)CC#N)C1)N1CC2(CCN(c3ncnnc3Oc3ccc(F)cc3-c3cncnc3C3CC3)C2)C1 (single isomer, unassigned) [Compound 298] | 9320
4 | 0.2 | 34 | COCC(=O)N[C@H]1C[C@@H]([C@@H](C(C)C)N2CC3(CCN(c4ncnnc4Oc4ccc(F)cc4-c4cncnc4C4CC4)C3)C2)C1 (single isomer, unassigned) [Compound 299] | 8350
5 | 0.3 | 170 | CC(C)[C@H]([C@H]1C[C@@H](NC(=O)C(C)(C)C)C1)N1CC2(CCN(c3ncnnc3Oc3ccc(F)cc3-c3cncnc3C3CC3)C2)C1 (single isomer, unassigned) [Compound 300] | 8190
6 | 0.2 | 33 | CC(C)[C@H]([C@H]1C[C@@H](NC(=O)C2(F)CC2)C1)N1CC2(CCN(c3ncnnc3Oc3ccc(F)cc3-c3cncnc3C3CC3)C2)C1 (single isomer, unassigned) [Compound 301] | 2500
7 | 0.3 | 7 | CC(C)[C@H]([C@H]1C[C@@H](NC(=O)C2CC2)C1)N1CC2(CCN(c3ncnnc3Oc3ccc(F)cc3-c3cncnc3C3CC3)C2)C1 (single isomer, unassigned) [Compound 303] | 4530
8 | 0.1 | 32 | CC(C)[C@H]([C@H]1C[C@@H](NC(=O)C2CC2)C1)N1CC2(CCN(c3ncnnc3Oc3ccc(F)cc3-c3nnccc3C3CC3)C2)C1 (single isomer, unassigned) [Compound 304] | 12100
9 | 0.2 | 17 | CC(C)[C@H]([C@H]1C[C@@H](NC(=O)C2(F)CC2)C1)N1CC2(CCN(c3ncnnc3Oc3ccc(F)cc3-c3nnccc3C3CC3)C2)C1 (single isomer, unassigned) [Compound 305] | 5780
10 | 0.3 | 56 | CC(=O)N[C@H]1C[C@@H]([C@@H](C(C)C)N2CC3(CCN(c4ncnnc4Oc4ccc(F)cc4-c4nncnc4C4CC4)C3)C2)C1 (single isomer, unassigned) [Compound 306] | 6460
11 | 0.7 | > 940 | CC(C)[C@H]([C@H]1C[C@@H](NC(=O)C2CC2)C1)N1CC2(CCN(c3ncnnc3Oc3ccc(F)cc3-c3nncn3C3CC3)C2)C1 (single isomer, unassigned) [Compound 307] | > 15000
12 | 0.2 | 70 | CC(C)[C@H]([C@H]1C[C@@H](NC(=O)C2CC2)C1)N1CC2(CCN(c3ncnnc3Oc3ccc(F)cc3-n3ncnc3C3CC3)C2)C1 (single isomer, unassigned) [Compound 308] | 4570
13 | 0.2 | 22 | CC(C)[C@H]([C@H]1C[C@@H](NC(=O)C2CC2)C1)N1CC2(CCN(c3ncnnc3Oc3ccc(F)cc3-c3n[nH]c(=O)cc3C3CC3)C2)C1 (single isomer, unassigned) [Compound 309] | 7390
14 | 0.3 | 52 | CC(C)[C@H]([C@H]1C[C@@H](NC(=O)C2(F)CC2)C1)N1CC2(CCN(c3ncnnc3Oc3ccc(F)cc3-c3n[nH]c(=O)cc3C3CC3)C2)C1 (single isomer, unassigned) [Compound 311] | 9990
15 | 0.2 | 5 | CC(=O)N[C@H]1C[C@@H]([C@@H](C(C)C)N2CC3(CCN(c4ncnnc4Oc4ccc(F)cc4-c4cnccc4C4CC4)C3)C2)C1 (single isomer, unassigned) [Compound 312] | 1270

The remaining lines, values behind:

Row | SMILES | IC50 [1] [nM] | IC50 (MOLM14 cells) [nM] | IC50 (KO-52 cells) [nM]
16 | CC(C)[C@@H]([C@H]1C[C@@H](N2CC(OC3CC3)C2)C1)N1CC2(CCN(c3ncnnc3Oc3ccc(F)cc3-c3nnccc3C3CC3)C2)C1 (single isomer, unassigned) [Compound 274] | 0.1 | 2 | 3560
17 | CC(C)[C@@H]([C@H]1C[C@H](N2C[C@H]3COC[C@H]3C2)C1)N1CC2(CCN(c3ncnnc3Oc3ccc(F)cc3-c3cnncc3C3CC3)C2)C1 (single isomer, unassigned) [Compound 279] | 0.1 | 20 | 5990
18 | CC(C)[C@H]([C@H]1C[C@H](N2CCC3(CCO3)CC2)C1)N1CC2(CCN(c3ncnnc3Oc3ccc(F)cc3-c3cnncc3C3CC3)C2)C1 (single isomer, unassigned) [Compound 280b] | 2.4 | 740 | > 15000
19 | CO[C@H]1[C@@H]2CN([C@H]3C[C@H]([C@H](C(C)C)N4CC5(CCN(c6ncnnc6Oc6ccc(F)cc6-c6cnncc6C6CC6)C5)C4)C3)C[C@@H]21 (single isomer, unassigned) [Compound 282b] | 0.5 | 380 | 11500
20 | CC(C)[C@@H]([C@H]1C[C@@H](N2CC[C@H](S(C)(=O)=O)C2)C1)N1CC2(CCN(c3ncnnc3Oc3ccc(F)cc3-c3ncccc3C3CC3)C2)C1 (single isomer, unassigned) [Compound 285] | 23.3 | > 940 | > 15000
21 | CC(C)[C@H]([C@H]1C[C@@H](N2CC[C@H](S(C)(=O)=O)C2)C1)N1CC2(CCN(c3ncnnc3Oc3ccc(F)cc3-c3ncccc3C3CC3)C2)C1 (single isomer, unassigned) [Compound 286] | 0.3 | 120 | 12200
22 | CC(C)[C@@H]([C@H]1C[C@@H](N2CC[C@@H](S(C)(=O)=O)C2)C1)N1CC2(CCN(c3ncnnc3Oc3ccc(F)cc3-c3ncccc3C3CC3)C2)C1 (single isomer, unassigned) [Compound 287] | 70.3 | > 940 | > 15000
23 | CC(C)[C@H]([C@H]1C[C@@H](N2C[C@H]3C[C@@H]2CO3)C1)N1CC2(CCN(c3ncnnc3Oc3ccc(F)cc3-c3ncccc3C3CC3)C2)C1 (single isomer, unassigned) [Compound 288] | 0.1 | 17 | 12100
24 | CC(C)[C@@H]([C@H]1C[C@@H](N2CCC3(COC3)C2)C1)N1CC2(CCN(c3ncnnc3Oc3ccc(F)cc3-c3cccnc3C3CC3)C2)C1 (single isomer, unassigned) [Compound 289] | 0.1 | 2 | 310
25 | CC(C)[C@@H]([C@H]1C[C@@H](N2C[C@H]3C[C@@H]2CO3)C1)N1CC2(CCN(c3ncnnc3Oc3ccc(F)cc3-c3cccnc3C3CC3)C2)C1 (single isomer, unassigned) [Compound 290] | 0.1 | 5 | 1080
26 | CC(C)[C@@H]([C@H]1C[C@H](N2C[C@H]3C[C@@H]2CO3)C1)N1CC2(CCN(c3ncnnc3Oc3ccc(F)cc3-c3cccnc3C3CC3)C2)C1 (single isomer, unassigned) [Compound 291] | 0.2 | 24 | 1070
27 | CC(C)[C@H]([C@H]1C[C@]2(CCC(=O)N2)C1)N1CC2(CCN(c3ncnnc3Oc3ccc(F)cc3-c3cncnc3C3CC3)C2)C1 (single isomer, unassigned) [Compound 313] | 43.4 | > 940 | > 15000
28 | CC(C)[C@H]([C@H]1C[C@@H](N2CC3(CCN(C)C3=O)C2)C1)N1CC2(CCN(c3ncnnc3Oc3ccc(F)cc3-c3cncnc3C3CC3)C2)C1 (single isomer, unassigned) [Compound 315] | 0.1 | 18 | 1960

From patent US20240417405A1, “Substituted Spiro Derivatives” (Janssen Pharmaceutica NV, priority 2021, published 2024)
